Measurements reported in patent publication US7914817B2, “Treatment of inflammatory bowel disease” (Ed. Geistlich Soehne AG fuer Chemische Industrie, priority 2000, dated 2011).

How the values were obtained:
[1] = test system: systemic inflammatory response in patients with active inflammatory bowel disease; assay: Oral taurolidine in patients with active IBD: systemic inflammatory response (Example 1); type: in vivo; settings: pre- vs post-administration (day 2, 5, 10)
Method: This experiment evaluates the beneficial effects of oral administration of taurolidine on attenuation of systemic inflammatory response in patients with active inflammatory bowel disease. This Example measures systemic proinflammatory and angiogenic cytokines, systemic reactive oxygen species and nitric oxide in patients with IBD pre- and post-taurolidine administration. Secondly, circulating PMN and monocytes from patients with IBD are assessed for their adhesion receptor expression, and their ability to release proinflammatory and angiogenic cytokines, as well as reactive oxygen species and nitric oxide following taurolidine treatment.
• 1) Peripheral venous blood samples are collected from patients on the day before taurolidine administration, and day 2, day 5 and day 10 after taurolidine administration. Serum samples are harvested by centrifugation and stored at −80° C. for measurement of serum levels of endotoxin, LPS binding protein (LBP), and soluble CD14, serum proinflammatory cytokines (TNF-α, IL-1β, IL-6), serum angiogenic cytokines (VEGF, TGF-β1), serum lipid peroxides (malonaldehyde), nitric oxide and peroxynitrite. • 2) Receptor expression of CD11a, CD11b, CD18, and CD14 on PMN and monocytes in the whole blood samples are assessed on the day before taurolidine administration, and day 2, day 5, and day 10 after taurolidine administration. […]

[2] = test system: inflammatory response in intestinal mucosa in patients with active inflammatory bowel disease; assay: Oral taurolidine in patients with active IBD: inflammatory response in intestinal mucosa (Example 2); type: in vivo
From the text: This example evaluates the beneficial effect of oral administration of taurolidine on amelioration of inflammatory response in intestinal mucosa in patients with active inflammatory bowel disease. This Example measures proinflammatory cytokines, angiogenic cytokines, reactive oxygen species and nitric oxide in the mucosal biopsy cultures in patients with IBD pre- and post-taurolidine administration. Local mucosal recruited PMN and mononuclear leukocyte-associated proinflammatory cytokine and angiogenic cytokine expression in patients with IBD are assessed pre- and post-taurolidine treatment.
• 1) The specimens of standard intestinal mucosal biopsy are collected from patients with IBD on the day before taurolidine administration, and day 5 and day 10 after taurolidine administration, and incubated with completed culture medium for different time points. The supernatants from the biopsy cultures are harvested by centrifugation and stored at −80° C. for measurement of proinflammatory cytokines (TNF-α, IL-1β, IL-6), angiogenic cytokines (VEGF, TGF-β1), lipid peroxides (malonaldehyde), nitric oxide and peroxynitrite. • 2) The mononuclear leukocytes from the above specimens of mucosal biopsy are isolated using the technique of collagenase-digestion and density gradient sedimentation. […]

[3] = test system: gram positive and gram negative bacteria and fungi; settings: cited from earlier work
[4] = humans and animals, intravenous and intraperitoneal administration; cited from earlier work
[5] = metabolized to taurine, carbon dioxide and water; cited from earlier work

O=S1(=O)CCN(CN2CCS(=O)(=O)NC2)CN1 [Taurolidine, bis(1,1-dioxoperhydro-1,2,4-thiadiazin-4-yl)methane]
systemic proinflammatory and angiogenic cytokine levels, PMN and monocyte adhesion receptor expression, lipid peroxides, nitric oxide, peroxynitrite [1]: ameliorates these phenomena | pathological changes in intestinal mucosa ([2]; day before vs day 5 and day 10): improves pathological changes in intestinal mucosa | proinflammatory cytokines, angiogenic cytokines, reactive oxygen species, recruitment of PMN and mononuclear leukocytes in the intestinal mucosa ([2]; mucosal biopsy): downregulation | antimicrobial activity [3]: broad spectrum of antimicrobial activity | toxicity / side effects [4]: non-toxic to humans and animals and is free from side effects | half life [5]: short half life
